From paper PMC12615753, “Glutathione as a taste modulator: molecular mechanisms of interaction with umami and sweet taste receptors” (Food Chemistry: Molecular Sciences, 2025)

Target: T1, hTAS1R1 L223A/rTAS1R3 (Homo sapiens, UniProt Q7RTX1, L223A)
T1 construct: UniProtKB number Q7RTX1–1); expressed in transfected cells; host or cells: HEK293T/17 (ATCC CRL-11268)
T1 sequence (Q7RTX1 21-841 L223A): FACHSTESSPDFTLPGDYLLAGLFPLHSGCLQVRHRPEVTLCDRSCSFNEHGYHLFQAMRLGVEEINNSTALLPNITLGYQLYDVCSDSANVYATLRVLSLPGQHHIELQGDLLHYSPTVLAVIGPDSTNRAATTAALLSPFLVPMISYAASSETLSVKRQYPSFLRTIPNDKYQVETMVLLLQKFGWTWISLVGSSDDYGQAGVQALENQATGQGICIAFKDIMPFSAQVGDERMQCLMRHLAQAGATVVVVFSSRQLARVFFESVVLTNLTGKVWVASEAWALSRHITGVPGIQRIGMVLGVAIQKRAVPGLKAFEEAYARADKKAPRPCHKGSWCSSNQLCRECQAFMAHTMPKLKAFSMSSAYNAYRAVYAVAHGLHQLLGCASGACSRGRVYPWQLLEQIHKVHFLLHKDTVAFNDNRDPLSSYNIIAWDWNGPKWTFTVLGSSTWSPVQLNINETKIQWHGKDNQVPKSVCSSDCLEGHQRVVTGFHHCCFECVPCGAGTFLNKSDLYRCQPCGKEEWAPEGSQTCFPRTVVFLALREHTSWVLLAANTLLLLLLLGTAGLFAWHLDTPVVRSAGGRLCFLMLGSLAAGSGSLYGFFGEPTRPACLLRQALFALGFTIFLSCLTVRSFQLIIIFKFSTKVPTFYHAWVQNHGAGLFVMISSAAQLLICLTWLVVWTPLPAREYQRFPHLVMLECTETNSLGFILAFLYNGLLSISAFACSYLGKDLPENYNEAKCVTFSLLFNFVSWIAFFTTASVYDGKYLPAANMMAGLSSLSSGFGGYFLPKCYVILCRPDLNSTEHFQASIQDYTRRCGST
T1 sequence (Q923K1 21-858 partner): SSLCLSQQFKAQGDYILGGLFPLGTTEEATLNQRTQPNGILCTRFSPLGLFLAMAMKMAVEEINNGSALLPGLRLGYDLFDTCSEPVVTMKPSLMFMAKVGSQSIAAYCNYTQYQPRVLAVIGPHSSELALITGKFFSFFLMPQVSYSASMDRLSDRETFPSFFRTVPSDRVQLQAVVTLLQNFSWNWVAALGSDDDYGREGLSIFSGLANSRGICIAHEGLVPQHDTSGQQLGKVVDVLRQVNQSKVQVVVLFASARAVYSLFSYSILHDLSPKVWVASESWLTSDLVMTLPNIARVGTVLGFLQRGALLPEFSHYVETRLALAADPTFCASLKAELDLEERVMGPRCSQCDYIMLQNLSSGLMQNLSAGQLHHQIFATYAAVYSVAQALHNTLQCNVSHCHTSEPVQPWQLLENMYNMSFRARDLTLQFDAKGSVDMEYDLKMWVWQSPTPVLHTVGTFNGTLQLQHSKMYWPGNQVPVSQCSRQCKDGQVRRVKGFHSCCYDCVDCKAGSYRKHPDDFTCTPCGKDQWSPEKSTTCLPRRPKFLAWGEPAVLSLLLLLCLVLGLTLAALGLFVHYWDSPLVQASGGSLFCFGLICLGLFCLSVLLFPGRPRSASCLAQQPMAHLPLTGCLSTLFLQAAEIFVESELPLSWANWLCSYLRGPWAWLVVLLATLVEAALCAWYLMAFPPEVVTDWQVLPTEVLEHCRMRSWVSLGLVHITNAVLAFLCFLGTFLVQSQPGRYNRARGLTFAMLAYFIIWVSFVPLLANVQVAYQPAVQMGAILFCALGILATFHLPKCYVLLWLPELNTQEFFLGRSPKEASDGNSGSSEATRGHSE
Assay: Calcium assay, hTAS1R1 mutant co-expressed with rTAS1R3
Type: cell-based, rat

Structure (SMILES): N[C@@H](CCC(=O)N[C@@H](CS)C(=O)NCC(=O)O)C(=O)O [GSH, γ-L-glutamyl-L-cysteinyl-glycine]
- EC50: 2.32 ± 0.308 mM
- effect of the added compound (1 mM) on the response to L-Glu (L223A): synergy was observed
- response to the agonist alone, vs WT (L223A): significantly increased the initial amplitude
- Max ∆F/F0 (L223A, GSH): 1.71 ± 0.09
- R1 = mutant EC50/WT EC50 (L223A, GSH): 0.9

Structure (SMILES): N[C@@H](CCC(=O)O)C(=O)O [L-Glu, L-glutamic acid, reference compound]
- response to the agonist alone, vs WT (L223A): increased the amplitude
